Results from ChEMBL document CHEMBL5356983, “Design and optimization of piperlongumine analogs as potent senolytics” (Bioorg Med Chem Lett, 2024).

Tests used:
[1] = Selectivity ratio IC50 for non-senescent human WI-38 cells to IC50 for ionizing radiation induced human WI-38 senescent cells; format: functional
WI-38 = assay: Senolytic activity in ionizing radiation induced human WI-38 senescent cells by PI staining based flow cytometry analysis; format: functional, cell-based
[2] = Senolytic activity in non-senescent human WI-38 cells by PI staining based flow cytometry analysis; format: toxicity, cell-based; settings: non-senescent WI-38 cells

| Structure (SMILES) | Ratio IC50 [1] | IC50 (WI-38) | IC50 [2] |
| --- | --- | --- | --- |
| COc1cc(/C=C/C(=O)N2CCCC=C(Cl)C2=O)cc(OC)c1OC | 3.7 | 450 nM | 1.7 µM |
| CN(C)CCOc1ccc(/C=C/C(=O)N2CCCC=C(Br)C2=O)cc1 | 1.2 | 2900 nM | 3.4 µM |
| COc1cc(/C=C/C(=O)N2CCC=C(C(F)(F)F)C2=O)cc(OC)c1OC |  | > 40000 nM | > 40 µM |
| COc1cc(/C=C/C(=O)N2CCC(N(C)C)CC2=O)cc(OC)c1OC (stereo unspecified) | 3.4 | 10200 nM | 34.6 µM |
| CN(C)CCOc1ccc(/C=C/C(=O)N2CCC=C(Cl)C2=O)cc1 | 1.5 | 2900 nM | 4.4 µM |
| COc1cc(/C=C/C(=O)N2C=CC=CCC2=O)cc(OC)c1OC | 1.3 | 21100 nM | 26.7 µM |
| COc1cc(/C=C/C(=O)N2CCC=C(F)C2=O)cc(OC)c1OC | 0.8 | 15300 nM | 12.1 µM |
| COc1ccc(/C=C/C(=O)N2CCCC=C(Cl)C2=O)cc1 | 9.3 | 160 nM | 1.5 µM |
| COc1ccc(/C=C/C(=O)N2CCCC=C(Br)C2=O)cc1 | 4.4 | 1300 nM | 5.8 µM |
| COc1cc(/C=C/C(=O)N2CCC=C(Br)C2=O)cc(OC)c1OC | 10.4 | 520 nM | 5.4 µM |
| COc1cc(/C=C/C(=O)N2CCC(=O)CC2)cc(OC)c1OC |  | > 40000 nM | > 40 µM |
| COc1cc(C#CC(=O)N2CCC=CC2=O)cc(OC)c1OC | 3.2 | 4400 nM | 13.9 µM |
| CN(C)CCOc1ccc(/C=C/C(=O)N2CCC=C(Br)C2=O)cc1 | 1.5 | 3200 nM | 4.8 µM |
| O=C(C#Cc1ccccc1)N1CCC=CC1=O | 1.6 | 930 nM | 1.5 µM |
| CN(C)CCOc1ccc(/C=C/C(=O)N2CCC=CC2=O)cc1 | 13.3 | 1500 nM | 19.5 µM |
| CN(C)C/C=C/C(=O)N1CCC=CC1=O | 3.5 | 2800 nM | 9.7 µM |
| COc1cc(/C=C/C(=O)N2CCC=CC2=O)cc(OC)c1OC [PIPLARTINE] | 2.5 |  | 20.3 µM |
| COc1cc(/C=C/C(=O)N2CCC(=O)/C(=C/c3ccc(F)cc3)C2)cc(OC)c1OC | 3.9 | 14000 nM | 53.8 µM |
| COc1cc(/C=C/C(=O)N2CC(O)C=CC2=O)cc(OC)c1OC (stereo unspecified) | 1.5 | 7400 nM | 11.3 µM |
| COc1cc(/C=C/C(=O)N2CCC=C(Cl)C2=O)cc(OC)c1OC | 8.1 | 650 nM | 5.3 µM |
| COc1cc(/C=C/C(=O)N2OCC=CC2=O)cc(OC)c1OC | 6 | 8100 nM | 48.9 µM |
| COc1cc(/C=C/C(=O)N2CCCC=C(Br)C2=O)cc(OC)c1OC | 6.5 | 560 nM | 3.6 µM |
| COc1cc(/C=C/C(=O)N2CC=CCC2=O)cc(OC)c1OC | >2.9 | 27500 nM | > 80 µM |
| COc1cc(/C=C/C(=O)N2CCC(=O)/C(=C/c3ccc(F)cc3F)C2)cc(OC)c1OC | 4.2 | 14700 nM | 62.5 µM |
| CN(C)CCOc1ccc(/C=C/C(=O)N2CCCC=C(Cl)C2=O)cc1 | 1.3 | 2400 nM | 3 µM |
| COc1ccc(/C=C/C(=O)N2CCC=C(Cl)C2=O)cc1 | 0.7 | 510 nM | 0.35 µM |
| COc1cc(/C=C/C(=O)N2CCC=C(I)C2=O)cc(OC)c1OC | 7.1 | 2300 nM | 16.3 µM |
| COc1ccc(/C=C/C(=O)N2CCC=C(Br)C2=O)cc1 | 1.8 | 630 nM | 1.1 µM |
